We go through 23 compounds from publication PMC11032351, “Epigenetic modulation through BET bromodomain inhibitors as a novel therapeutic strategy for progranulin-deficient frontotemporal dementia” (Scientific Reports, 2024).

Where a SMILES comes first, the peptide text is derived from it. [ ]: non-standard residue; d: D form. ξ: configuration not given here. Aoe(9ξ) = N[C@@H](CCCCCC(=O)C1CO1)C(=O)O; dPip = O=C(O)[C@H]1CCCCN1

One experiment deals with GRN mRNA. Nature of the experiment: qPCR of GRN mRNA in human NPCs (enhancer screen and follow-up). Format: cell-based. The conditions noted are these: human NPCs, 24 h, dose 1 µM, relative to DMSO. The protocol: All compounds were purchased from commercial vendors. All compounds were made at 1000 × stocks in DMSO (Sigma Aldrich #D2438), except for sodium valproate, which was dissolved in ddH2O. NPCs and neurons were generated and maintained as described above. For treatment, the stock compounds were diluted 1:1000 in NPC media (final DMSO concentration 0.1%), which was then applied to confluent NPCs or 18-day differentiated neurons derived from confluent NPC cultures for indicated time periods.
RNA was generated from each well of a 6-well treated plate of NPCs or neurons. First, media from each well was aspirated, and washed with 1 mL of dPBS. Wells were then lysed with 1 mL TRIzol Reagent (ThermoFisher #11,596,026). Wells were then incubated at room temperature for 5 min, and then RNA was extracted using the DirectZol RNA MiniPrep Kit (Zymo Research #R2052). RNA was stored at − 80 °C until further use. cDNA was generated using the High-Capacity cDNA synthesis Kit with RNase inhibitor (ThermoFisher #4,368,814) using 1000–1200 ng RNA per reaction. cDNA was either used immediately or stored at -20 °C until use, where it was then diluted 1:4 with DNase/RNase-free water (Invitrogen #10,977–015).
qPCR was conducted using the Roche 480 Light Cycler in a 384-well plate. To each well was added 5 μL of TaqMan 2X Gene Expression Master Mix (ThermoFisher #4,369,510), 0.5 μL of 20X TaqMan primer probe (ThermoFisher, GRN: Hs00963707_g1, GAPDH: Cat.#432924E), 0.5 μL of DNase/RNase-free H2O, and 4 μL of above diluted cDNA. Results were normalized to GAPDH, and replicate mean values and standard error of the mean are reported.
Take `CN(C)Cc1c(C(=O)NCCOc2ccc(C(=O)NO)cc2)oc2ccccc12` [PCI-24781]: the “GRN Fold-change (Norm. to GAPDH) ± Std. Error” value is 3.68 ± 0.27.

As to `CCn1cc(-c2ccnc3[nH]c(-c4cccc(CN(C)C)c4)cc23)c(-c2ccc(NC(=O)N(C)C)cc2)n1` [GSK1070916], the “GRN Fold-change (Norm. to GAPDH) ± Std. Error” value came to 1.45 ± 0.

`COc1cc2nc(N3CCCN(C)CC3)nc(NC3CCN(Cc4ccccc4)CC3)c2cc1OC` [BIX01294]: the “GRN Fold-change (Norm. to GAPDH) ± Std. Error” value is reported as 0.80 ± 0.04.

Still in this experiment, the particulars now being: human NPCs, 24 h, dose 10 µM, relative to DMSO.
Take `c1ccc([C@@H]2C[C@H]2NC2CCNCC2)cc1` [GSK-LSD1]: the “GRN Fold-change (Norm. to GAPDH) ± Std. Error” value was determined as 0.96 ± 0.11.

For the compound `Cc1c[nH]c(-c2cnc(NCCNc3ccc(C#N)cn3)nc2-c2ccc(Cl)cc2Cl)n1` [CHIR-99021], the “GRN Fold-change (Norm. to GAPDH) ± Std. Error” value stood at 0.79 ± 0.06.

Regarding `N#CC[C@H](C1CCCC1)n1cc(-c2ncnc3[nH]ccc23)cn1` [Ruxolitinib], the “GRN Fold-change (Norm. to GAPDH) ± Std. Error” value is 1.26 ± 0.04.

As to `COC1CCC(C(=O)c2ccc3nc4c(cc3c2)CCCO4)CC1` (stereo not shown) [JNJ16259685], the “GRN Fold-change (Norm. to GAPDH) ± Std. Error” value came to 1.00 ± 0.10.

As to `O=C(CCCCCCNC(=O)c1cnc(N(c2ccccc2)c2ccccc2)nc1)NO` [ACY-1215], the “GRN Fold-change (Norm. to GAPDH) ± Std. Error” value was 3.63 ± 0.57.

On to `Cn1cc(-c2ccncc2)c(-c2ccc(OCc3ccc4ccccc4n3)cc2)n1` [PF-2545920], for which the “GRN Fold-change (Norm. to GAPDH) ± Std. Error” value is on record as 1.29 ± 0.16.

Take `CCOC(=O)Nc1cc(-c2ccc(C)c(NS(C)(=O)=O)c2)nn2c(C)nnc12` [Bromosporine, bromosporine]: the “GRN Fold-change (Norm. to GAPDH) ± Std. Error” value is on record as 3.44 ± 0.25.

For `O=C(Nc1c(Cl)cncc1Cl)c1ccc(OC(F)F)c(OCC2CC2)c1` [Roflumilast], the “GRN Fold-change (Norm. to GAPDH) ± Std. Error” value is on record as 1.01 ± 0.09.

For the compound (-)-Eseroline fumarate, the “GRN Fold-change (Norm. to GAPDH) ± Std. Error” value worked out at 1.10 ± 0.

With `Cc1cc(C)c(CNC(=O)c2cc(-c3ccc(CN4CCOCC4)cc3)cc3c2cnn3C2CCCC2)c(=O)[nH]1` [EPZ005687], the “GRN Fold-change (Norm. to GAPDH) ± Std. Error” value came to 1.18 ± 0.10.

As to `Cc1c(OCC(F)(F)F)ccnc1C[S+]([O-])c1nc2ccccc2[nH]1` (stereo not shown) [Lanosoprazole], the “GRN Fold-change (Norm. to GAPDH) ± Std. Error” value is recorded as 1.37 ± 0.23.

For the compound `NNCCc1ccc(NC(=O)CCCc2ccccc2)cc1` [Bizine], the “GRN Fold-change (Norm. to GAPDH) ± Std. Error” value was found to be 0.92 ± 0.12.

Regarding `CCOC(=O)CCNc1cc(N2CCc3ccccc3CC2)nc(-c2ccccn2)n1` [GSK-J4], the “GRN Fold-change (Norm. to GAPDH) ± Std. Error” value was determined as 0.76 ± 0.03.

For the compound `O=C(NC1CC1)c1cc(-c2cccs2)on1` [Compound Z220650400], the “GRN Fold-change (Norm. to GAPDH) ± Std. Error” value came to 1.17 ± 0.10.

Still in this experiment, the particulars now being: human NPCs, 24 h, dose 10 µM, relative to DMSO; listed as bromosporine.
Regarding `CCOC(=O)Nc1cc(-c2ccc(C)c(NS(C)(=O)=O)c2)nn2c(C)nnc12` [Bromosporine, bromosporine], the “GRN Fold-change (Norm. to GAPDH) ± Std. Error” value is on record as “active enhancers of GRN mRNA”.

The same experiment, now with this note: human NPCs, 24 h, dose 25 µM, relative to DMSO.
With `CNC(=O)Oc1ccc2c(c1)[C@]1(C)CCN(C)[C@@H]1N2C` [Eserine], the “GRN Fold-change (Norm. to GAPDH) ± Std. Error” value was found to be 0.73 ± 0.15.

For the compound (-)-Eseroline fumarate, the “GRN Fold-change (Norm. to GAPDH) ± Std. Error” value is given as 0.79 ± 0.46.

The test system of a further experiment is PGRN-Luc. Nature of the experiment: HMC3 PGRN-luciferase reporter assay. Format: cell-based, human. Conditions: HMC3 PGRN-Luc cells, 20 h. The method, then: HMC3 PGRN-Luc cells were trypsinized from confluent T-75 flasks and re-suspended in HMC-3 media at 150,000–200,000 cells/mL. 30 µL of cell suspension was then seeded onto each well of black, 384-well clear-bottom plates (Corning 3712) using the Multidrop Combi (Thermo Fisher). Cells were allowed to adhere to plates in the incubator at 37 °C/5% CO2 for 6–8 h. After 6–8 h, compounds were added to each well using the D300e (Tecan) compound dispenser, and all wells were DMSO-normalized (0.3%). Cells were allowed to incubate with compounds for indicated timeframes.
Plates were removed from the incubator and allowed to cool to RT. 15 µL of media was removed from each well using a multichannel pipette and added to separate Corning 3712 plates for a read of “secreted” PGRN. To both the media-containing plates as well as the cell-containing plates (with 15 µL media remaining) is then added 15 µL of active luminescence reagent (Thermo 18,636) which was generated according to manufacturer’s instructions. Plates were allowed to nutate at RT for 15 min prior to reading using the EnVision (PerkinElmer). For calculation of the internal PGRN-Luc signal, the secreted signal (15 µL media) was subtracted from the signal of the cell-containing plates (with 15 µL media remaining). For “total” PGRN-Luc signal, a sample of media was not aliquoted into a separate plate, and instead, 30 µL of active luminescence reagent was added directly to each well.
For the mivebresib and panobinostat time-course experiment, the above procedure was followed, with the exception that cells were seeded at 66,600 cells/mL in 30 µL media, and allowed to grow overnight prior to compound addition for the indicated timeframes.
For orientation: Reporter assays use an easily measured gene product as a stand-in for the process of interest.
As to `O=C(CCCCC[C@@H]1NC(=O)[C@H]2CCCCN2C(=O)[C@H](Cc2ccccc2)NC(=O)[C@H](Cc2ccccc2)NC1=O)C1CO1` (stereo partly shown) [trapoxin A] (cyclo(FF[dPip][Aoe(9ξ)])), the “enhancement of internal PGRN-Luc signal” value was “able to enhance both internal and secreted PGRN at sub-µM concentrations”; the “enhancement of secreted PGRN-Luc signal” value was “able to enhance both internal and secreted PGRN at sub-µM concentrations”.

Turning to `CC(/C=C/C(=O)NO)=C\[C@@H](C)C(=O)c1ccc(N(C)C)cc1` [trichostatin A], the “enhancement of internal PGRN-Luc signal” value is “able to enhance both internal and secreted PGRN at sub-µM concentrations”; the “enhancement of secreted PGRN-Luc signal” value is “able to enhance both internal and secreted PGRN at sub-µM concentrations”.

With `CC(=O)Nc1ccc(C(=O)Nc2ccccc2N)cc1` [CI-994], the “enhancement of secreted PGRN-Luc signal” value is “either weakly or entirely unable to enhance secreted PGRN”.

The next experiment has as its system PGRN protein levels. The experiment is described as follows: PGRN quantification (Jess) in human NPCs. It is filed as cell-based. Conditions: 100 nM, 24 h. The method, then: PGRN capillary gel electrophoresis experiments were performed using Jess (Bio-Techne) and data were processed and analyzed using Compass for Simple Western software (version 6.0). Runs were conducted using EZ Standard Pack 1 12-230 kDa (Bio-Techne PS-ST01EZ-8), 12-230 kDa pre-filled plates (PS-PP03), 12-230 kDa separation module (SMW004), anti-rabbit HRP detection ([…]-001), and total protein detection modules (DM-TP01, biotin labeling reagent 042-973) according to the manufacturer's instructions, and with anti-PGRN primary (Abcam ab208777) diluted 1:50 in milk-free antibody dilution buffer (043-524). […] All intensity quantifications are normalized to the total protein assay quantification unless otherwise indicated. NPCs were cultured normally in 6-well plates as described previously. Upon reaching confluency, DMSO or MLN-4924 (Cayman #15,217, 10 mM stock in DMSO) were diluted 1:5000 into NPC media with growth factors. 1 mL of media was aspirated from the cell cultures, and 1 mL of MLN-4924 or DMSO dilutions were then added to respective wells (final well concentration: 1 μM MLN-4924 in select wells, 0.01% DMSO for all wells). Plates returned to the incubator. […] Plates returned to the incubator. After 4 h, to the indicated wells is directly added 1 μL 2 mM mivebresib (MedChem Express HY-100015) in DMSO for a final concentration of 1 μM, or 1 μL DMSO. All plates were returned to the incubator overnight. The next day, 24 h from the addition of mivebresib, plates were removed from the incubator, and all wells were washed with 2 mL PBS, and then lysed in 300 μL M-PER lysis buffer with protease inhibitors. Cells were allowed to lyse for 15 min at 4 °C with light nutation, and then lysate was transferred to a 1.5-mL Eppendorf tube which was then spun down at 20 k rcf at 4 °C for 10 min. 200 μL of supernatant was then transferred to a fresh, labeled Eppendorf rube, which was then stored at - 20 °C prior to further analysis. Sample concentration was quantified using the BCA assay as described above, and normalized to 250 μg/mL in M-PER lysis buffer prior to PGRN quantification using the Jess. NPCs were cultured normally as described previously. 6-well plates were seeded at 300,000 cells/well in 2 mL of NPC media with EGF, bFGF, and heparin as described above. Cells were allowed to grow to confluency for three nights at 37 °C with 5% CO2. […] These solutions were then diluted 1:10 in NPC media with growth factors containing 0.2% DMSO to make 100 nM compound solutions. Treatment wells were washed with 2 mL PBS prior to addition of 2 mL NPC media with growth factors containing compound (or DMSO only) at indicated concentrations (3 replicates per condition, 6 DMSO replicates). Plates were then allowed to incubate at 37 °C with 5% CO2 for 24 h. After 24 h, cells were removed from the incubator, washed with 1 mL PBS, and then lysed with 500 μL M-PER lysis buffer (Thermo Fisher #78,501) with 1 cOmplete Mini, EDTA-free protease inhibitor added (Sigma-Aldrich#11,836,170,001) per 15 mL lysis buffer. Plates were allowed to nutate at 4 °C for 15 min before transferring the lysate to 1.5 mL Eppendorf tubes, which were then spun down at 20,000 rcf at 4 °C for 10 min. 400 μL of the supernatant was then transferred to fresh 1.5-mL Eppendorf tubes, which were then frozen down at - 80 °C prior to further use. Samples were removed from the - 80 °C and concentrations were determined via BCA assay (Thermo Scientific #23,227) using a pre-diluted BSA standard (Life Technologies #23,208) on a 96-well polystyrene plate (Thermo Fisher #12,565,500). Samples were diluted to 0.25 mg/mL using M-PER lysis buffer prior to PGRN quantification using the Jess. NPCs were cultured as described above, and seeded onto coated 24-well plates at 150,000 cells/well in 1 mL NPC media with growth factors. Plates were allowed to grow to ~ 100% confluency for three nights at 37 °C with 5% CO2. […] Plates were allowed to incubate overnight at 37 °C with 5% CO2 for 24 h. […]
Regarding `CCNC(=O)c1cc2c(-c3cc(C(C)(C)O)ccc3Oc3c(C)cc(F)cc3C)cn(C)c(=O)c2[nH]1` [ABBV-744], the “enhancement of PGRN protein levels” value is given as ~ 30%.

For `COCc1nc2cnc3cc(-c4c(C)noc4C)c(OC[C@H]4CCNC4)cc3c2n1[C@H](C)c1ccccc1` [iBET-BD1], the “enhancement of PGRN protein levels” value is “unable to enhance PGRN protein levels”.

Still in this experiment, the particulars now being: 24 h, various doses.
As for `CCNC(=O)c1cc2c(-c3cc(C(C)(C)O)ccc3Oc3c(C)cc(F)cc3C)cn(C)c(=O)c2[nH]1` [ABBV-744], the “PGRN protein levels, dose-response” value is reported as “mid to high nM concentrations were sufficient to enhance PGRN protein levels”.
